{"source": "patent US11299538B2", "about": "“Anti-IGF antibodies” (Boehringer Ingelheim International GmbH, priority 2008, dated 2022)", "system": "SK-ES-1 cells", "assay": "Ewing's sarcoma-derived cell line growth assay, combination with rapamycin", "type": "cell-based", "conditions": "Homo sapiens, SK-ES1, 100 nM (each agent), FIG. 8, read-out: proliferation inhibition", "description": "The typical concentrations used are 30, 10, 3.3, 1.1, 0.37, and 0.12 μg/ml (or 100, 10, 1, 0.1, 0.01, 0.001 nM rapamycin and test antibody for combination studies) and each dilution is performed in triplicate wells. The cells plus antibody are then incubated for 120 hours after which time the relative cell number in each well is determined using the CellTiter-Glo luminescent cell viability assay (Promega). Luminescence (LU=Luminescence Units) is recorded using a XFluor GENios Pro 4 and for data analysis the mean value from triplicate wells is taken and fitted by iterative calculations using a sigmoidal curve analysis program (Graph Pad Prism) with variable Hill slope.", "data": [{"smiles": "CO[C@H]1C[C@@H]2CC[C@@H](C)[C@@](O)(O2)C(=O)C(=O)N2CCCC[C@H]2C(=O)O[C@H]([C@H](C)C[C@@H]2CC[C@@H](O)[C@H](OC)C2)CC(=O)[C@H](C)/C=C(\\C)[C@@H](O)[C@@H](OC)C(=O)[C@H](C)C[C@H](C)/C=C/C=C/C=C/1C", "note": "[rapamycin, reference compound]", "values": [{"measurement": "inhibition at 0.1 µM", "result": "~60", "unit": "%"}]}]}
